Test [1] addresses BCL-2 binding to biotinylated BAD peptide (Homo sapiens, UniProt P10415). The experiment in a line: SPR (Biacore) solution inhibition assay, BCL-2 binding to BAD peptide surface. The settings on record: read-out: BCL2_SPR IC50 BAD. The text has this: (§1) The present method includes utility of a Surface plasmon resonance (SPR)-based biosensor (Biacore™, GE Healthcare, Uppsala, Sweden) to characterize BCL-2 inhibitors.
(§2) Biacore™ utilizes the phenomenon of surface plasmon resonance (SPR) to detect and measure binding interactions. In a typical Biacore experiment, one of the interacting molecules (ligand) is immobilized on a flexible dextran matrix while the interacting partner (analyte) is allowed to flow across that surface. A binding interaction results in an increase in mass on the sensor surface and a corresponding direct change in the refractive index of the medium in the vicinity of the sensor surface. Changes in refractive index or signal are recorded in resonance units (R.U.) Signal changes due to association and dissociation of complexes are monitored in a non-invasive manner, continuously and in real-time, the results of which are reported in the form of a sensorgram.
(§3) The SPR assay is configured to examine solution inhibition of BCL-2 binding to peptide derivatized sensor surfaces to generate IC50 values as a measure of inhibitor potency.
(§4) Biacore™ A100 (GE Healthcare, Uppsala, Sweden) was used to conduct all experiments reported herein. Sensor surface preparation and all interaction analyses experiments were performed at 25° C. Reagents were purchased from GE Healthcare. Running buffer containing 10 mM Hepes, pH7.4, 150 mM sodium chloride, 1.25 mM Dithiothreitol, 3% Dimethyl sulfoxide and 0.05% polysorbate 20 were utilized throughout all analyses.
(§5) Biotinylated BAK, BAD and NOXA peptides were diluted to 10 nM in running buffer and captured onto a sensor surface pre-derivatized with streptavidin (sensor chip SA) to peptide surface densities in the range 50-100 R.U. Peptide captured surfaces were blocked with 500 μM PEO2-Biotin.
(§6) Interaction analyses were performed by first equilibrating each sample within a 6 point three fold compound dilution series in the range 16 μM to […] with 56 nM BCL-2 for one hour during instrument start-up procedures. Protein compound mixtures were then injected over each peptide surface in parallel for 60 seconds at a flow-rate of 30 μL/min. 56 nM BCL-2 control samples were also prepared and run at regular intervals during the assay. Surface regeneration was performed at the end of each analysis cycle by two 30 second injections of 10 mM Glycine, pH 2.5, 1M Sodium Chloride, 0.05% polysorbate 20. Samples and control compound samples were run in duplicate and controls are also run at regular intervals during the assay to monitor surface and assay performance.
(§7) Data analyses are carried out using Biacore™ A100 evaluation software v1.1 to validate assay quality. Binding level report points were used relative to BCL-2 control samples to calculate % inhibition values for each compound protein mixture. […] The range of data shown in table 1 represents the high and low IC50 values obtained from multiple experiments.
In general terms: SPR reads the build-up and loss of mass on a sensor chip optically.

For test [2], the target named is BCL-2 binding to biotinylated BAK peptide (Homo sapiens, UniProt P10415). The test is described as follows: SPR (Biacore) solution inhibition assay, BCL-2 binding to BAK peptide surface. The settings on record: read-out: BCL2_SPR IC50 BAK.
Excerpt: as §1, §2, §3, §4, §5, §6, §7

Each structure is given as a SMILES string.

BCL-2 binding to biotinylated BAD peptide, sequence (P10415 whole entry): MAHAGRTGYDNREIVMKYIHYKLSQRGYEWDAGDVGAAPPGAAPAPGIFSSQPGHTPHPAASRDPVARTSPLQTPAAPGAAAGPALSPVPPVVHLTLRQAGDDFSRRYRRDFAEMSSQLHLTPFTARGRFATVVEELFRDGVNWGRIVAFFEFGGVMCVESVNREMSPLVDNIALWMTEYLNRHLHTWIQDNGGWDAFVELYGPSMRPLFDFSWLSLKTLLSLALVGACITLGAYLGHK
BCL-2 binding to biotinylated BAK peptide, sequence (P10415 whole entry): as above

As usually defined, the IC50 is the concentration needed to halve the response being measured. Turning to `CCCCN(CCCC)C(=O)c1cc(C)n(-c2ccc(NC(=O)NCc3ccccc3)cc2C(=O)N2Cc3ccccc3C[C@H]2CO)n1` [Example 1, (S)-1-(4-(3-benzylureido)-2-(3-(hydroxymethyl)-1,2,3,4-tetrahydroisoquinoline-2-carbonyl)phenyl)-N,N-dibutyl-5-methyl-1H-pyrazole-3-carboxamide], the values for the IC50 in test [1] and in test [2] were 52 to 65.5 nM and 45.2 to 54.3 nM, respectively.

On to `CCCCN(CCCC)C(=O)c1cc(C)n(-c2ccc(NC(=O)NCc3ccccc3OC)cc2C(=O)N2Cc3ccccc3C[C@H]2CO)n1` [Example 5], for which the results for the IC50 in test [1] and in test [2] were 72.3 to 78.3 nM and 73.2 to 77.1 nM, respectively.

`CCCCN(CCCC)C(=O)c1cc(C)n(-c2ccc(NC(=O)Nc3cccs3)cc2C(=O)N2Cc3ccccc3C[C@H]2CO)n1` [Example 26]: the results for the half-inhibitory concentration (IC50) in test [1] and in test [2] were 2090 to 2440 nM and 1660 to 1700 nM, respectively.

Consider `CCCCN(CCCC)C(=O)c1cc(C)n(-c2ccc(NC(=O)Nc3c(C)cccc3C)cc2C(=O)N2Cc3ccccc3C[C@H]2CO)n1` [Example 30], for which the results for the IC50 in test [1] and in test [2] were 210 to 238 nM and 192 to 205 nM, respectively.

The values above are taken from patent US20140357666A1, “COMPOUNDS FOR INHIBITING THE INTERACTION OF BCL2 WITH BINDING PARTNERS” (NOVARTIS AG, priority 2011, published 2014).
